Laboratory results as given in US20130165734A1, “TIME-DOMAIN TRANSDUCTION SIGNALS AND METHODS OF THEIR PRODUCTION AND USE” (Nativis, Inc., priority 2009, published 2013).

Columns and labels:
U87 glioblastoma cells = assay: intracranial U87 glioblastoma tumor study in mice; format: in vivo; settings: tumor-bearing animals treated with taxol compound over the same 23 day period
[1] = observation of side effects in treated tumor-bearing animals; format: in vivo, mice; settings: animals treated with taxol; preliminary observations
Text: Another potential advantage of signal therapy over the conventional drug therapy is the potential for reduced side effects.

tubulin [2] = assay: electron microscopy of tubulin assay samples; format: biochemical; settings: 10 minutes exposure to 4 μM taxol
Text: The assay samples from above were examined by electron microscopy to confirm that the nature of the microtubule polymers formed in the assay, either by the addition of taxol or the taxol-derived time-domain signal. FIGS. 10A-10F are photo electron micrographs, taken at 21,000× and 52,000× magnification, of a tubulin suspension for untreated control (FIGS. 10A and 10B), cremaphore alone, FIGS. 10C, 10D), and the tubulin suspension exposed to the magnetic field of a white-noise signal. Each sample was allowed to incubate in the system cell for 10 minutes under the conditions described, then placed on ice and immediately after cooling, placed on an EM grid and fixed for with stain. No evidence of significant tubulin formation is observed in any of these samples.
FIGS. 12A-12D show the morphology of the tubulin assay samples after 10 minutes exposure to 4 μM taxol, where the samples were cooled after 10 minutes and prepared for EM as above.
FIGS. 13A-13D show the morphology of the tubulin assay samples after 10 minutes exposure to the above M2(3) taxol-derived time-domain signal. 4 μM taxol, where the samples were cooled after 10 minutes and prepared for EM as above.

tubulin [3] = assay: in vitro tubulin polymerization (aggregation) assay, absorbance at 340 nm; format: biochemical; settings: 4 μM taxol, tubulin 1.5 mg/ml in GPEM buffer, first ten minutes
Experimental: The M2(3) and a number of other high-score signals were tested for their ability to stabilize tubulin polymerization, employing the transduction system described above with reference to FIG. 7A. […] This assay has been described, for example, in Shelanski, M. L., Gaskin, F. and Cantor, C. R. (1973). Microtubule assembly in the absence of added nucleotides. Proc. Natl. Acad. Sci. U.S.A. 70, 765-768; and Lee, J. C. and Timasheff, S. N. (1977). In vitro reconstitution of calf brain microtubules: effects of solution variable. Biochemistry, 16, 1754-1762.
The M2(3) and a number of other high-score taxol signals were tested for their ability to stabilize tubulin polymerization. […] Change in optical absorption at 340 nm was measured continuously for each sample, and the OD340 data was used to calculate a rate of tubulin polymerization (dA/minute at 340 nm) at each one minute interval during the transduction study.
The results of the study, expressed as rate or tubulin polymerization over the first ten minutes of the study, are shown in FIGS. 9A and 9B.

## CC(=O)O[C@H]1C(=O)[C@@]2(C)[C@H]([C@H](OC(=O)c3ccccc3)[C@]3(O)C[C@H](OC(=O)[C@H](O)[C@@H](NC(=O)c4ccccc4)c4ccccc4)C(C)=C1C3(C)C)[C@]1(OC(C)=O)CO[C@@H]1C[C@@H]2O [taxol, taxol (paclitaxel)]
U87 glioblastoma cells
  tumor volume result compared with signal treatment: A similar result was seen
[1]
  side effects (activity, behavior, appetite): showed the expected signs of lethargy and loss of appetite
Tubulin [2]
  morphology of tubulin assay samples (EM): A number of well-developed microtubular structures, including multi-lamellar structures are seen
Tubulin [3]
  increase in absorbance (tubulin polymerization) over the tubulin control: increased more than twofold
